ChEMBL document CHEMBL1201862, “PubChem BioAssay data set” (2004)
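Step 1: Grow cells in 96-well plates. Step 2: Expose to compound for 48 hours at 5 concentrations. Step 3: Interpolate endpoints linearly; if unreached, use highest concentration. The concentration for 50% growth inhibition is given as GI50.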 Active and inactive are the calls of the source. No stated cut-off is given here; in the data, active = GI50 up to about 1.1 µM and inactive = higher.

Assays:
Experiment in all cases: inhibition of tumour cell growth, NCI panel, 48 h
[1] = system: SF-295
[2] = system: ACHN
[3] = system: Malme-3M
[4] = system: T47D
[5] = system: SF-539
[6] = system: DU-145
[7] = system: SN12C
[8] = system: SF-268
[9] = system: OVCAR-5
[10] = system: SK-OV-3
[11] = system: NCI-H522
[12] = system: IGROV-1
[13] = system: MDA-MB-435
[14] = system: Hs-578T
[15] = system: UACC-62
[16] = system: MDA-MB-231
[17] = system: TK-10
[18] = system: M14
[19] = system: NCI-H460
[20] = system: HOP-62
[21] = system: U-251
[22] = system: HCT-15
[23] = system: SW-620
[24] = system: CCRF-CEM
[25] = system: UO-31
[26] = system: OVCAR-3
[27] = system: KM12
[28] = system: HL-60
[29] = system: EKVX
[30] = system: UACC-257
[31] = system: RXF 393
[32] = system: BT-549
[33] = system: OVCAR-8
[34] = system: SR
[35] = system: PC-3
[36] = system: RPMI-8226
[37] = system: HT-29
[38] = system: MCF7
[39] = system: LOX IMVI
[40] = system: A549
[41] = system: A498
[42] = system: SNB-19
[43] = system: NCI/ADR-RES
[44] = system: COLO 205
[45] = system: HCT-116
[46] = system: HCC 2998
[47] = system: 786-0
[48] = system: SK-MEL-28
[49] = system: SK-MEL-2
[50] = system: NCI-H23
[51] = system: MDA-N
[52] = system: MOLT-4
[53] = system: SNB-75
[54] = system: NCI-H226
[55] = system: K562
[56] = system: OVCAR-4
[57] = system: SK-MEL-5
[58] = system: CAKI-1

Measured: GI50

O=C(O)C(Cc1ccc2c(c1)CCC2)(Cc1ccc2c(c1)CCC2)C(=O)O
> 100 µM: [22]
inactive: [1] > 100 µM | [2] > 100 µM | [3] > 100 µM | [4] > 100 µM | [5] > 100 µM | [6] > 100 µM | [7] > 100 µM | [8] > 100 µM | [9] > 100 µM | [10] > 100 µM | [11] > 100 µM | [12] > 100 µM | [13] > 100 µM | [14] > 100 µM | [15] > 100 µM | [16] 29.2 µM | [17] > 100 µM | [18] > 100 µM | [19] > 100 µM | [20] > 100 µM | [21] > 100 µM | [23] > 100 µM | [24] > 100 µM | [25] > 100 µM | [26] > 100 µM | [27] > 100 µM | [28] > 100 µM | [29] > 100 µM | [30] > 100 µM | [31] > 100 µM | [32] > 100 µM | [33] > 100 µM | [34] > 100 µM | [35] > 100 µM | [36] > 100 µM | [37] > 100 µM | [38] > 100 µM | [39] > 100 µM | [40] > 100 µM | [41] > 100 µM | [42] > 100 µM | [43] > 100 µM | [44] > 100 µM | [45] > 100 µM | [46] > 100 µM | [47] > 100 µM | [48] > 100 µM | [49] > 100 µM | [50] > 100 µM | [51] > 100 µM | [52] > 100 µM | [53] > 100 µM | [54] > 100 µM | [55] > 100 µM | [56] > 100 µM | [57] > 100 µM

Cc1c(-c2ccccc2)c(C#N)c2nnc(C(N)=O)c(N)n12
inactive: [1] > 100 µM | [2] > 100 µM | [3] > 100 µM | [4] > 100 µM | [5] > 100 µM | [6] > 100 µM | [7] > 100 µM | [8] > 100 µM | [9] > 100 µM | [10] 70.5 µM | [11] > 100 µM | [12] > 100 µM | [13] > 100 µM | [14] > 100 µM | [15] > 100 µM | [16] > 100 µM | [17] > 100 µM | [18] > 100 µM | [19] > 100 µM | [20] > 100 µM | [21] > 100 µM | [23] > 100 µM | [24] > 100 µM | [25] > 100 µM | [26] > 100 µM | [27] > 100 µM | [28] > 100 µM | [29] > 100 µM | [30] > 100 µM | [31] > 100 µM | [32] > 100 µM | [33] > 100 µM | [34] > 100 µM | [35] > 100 µM | [36] > 100 µM | [37] > 100 µM | [38] > 100 µM | [39] > 100 µM | [40] > 100 µM | [41] > 100 µM | [42] > 100 µM | [43] > 100 µM | [44] > 100 µM | [45] > 100 µM | [58] > 100 µM | [46] > 100 µM | [47] > 100 µM | [48] > 100 µM | [49] > 100 µM | [50] > 100 µM | [51] > 100 µM | [52] > 100 µM | [55] > 100 µM | [56] > 100 µM | [57] > 100 µM
> 100 µM: [22]
